Read-outs that look alike come from different tables or passages of the source.
Experiments:
[1] = Caco-2 permeation assay, bidirectional permeability; format: in vitro ADME; conditions: human, Caco-2, pH 7.4, 5 μM, Papp(B-A)/Papp(A-B)
Procedure: 1. Caco-2 Permeation Assay: Evaluation of the Bidirectional Permeabilities of Compounds.
Samples were analyzed through LC/MS/MS for estimating the apparent permeability coefficients (Papp) of compounds across Caco-2 cell monolayers. Caco-2 cells (American Type Culture Collection) were incubated and seeded onto HTS Transwell-96 Well Permeable Supports (Corning Corporation) for 14 days using a cell medium consisting of Dulbecco's Modified Eagle's Medium (DMEM) with high glucose and L-glutamine supplemented with 10% FBS, 1× penicillin-streptomycin mixture and 1×non-essential amino acids (NEAA). Cell monolayer integrity was measured using an automated tissue resistance measuring system (World Precision Instruments). Stock solutions of compounds and control compounds in DMSO were diluted with HBSS (10 mM HEPES, pH 7.4) to reach a final concentration of 5 μM with a final concentration of DMSO <0.1%. HBSS was then removed after 30 minutes of preincubation, and 75 μL of test compound was added to the apical compartment of the Transwell insert. The basolateral compartment was filled with 235 μL of HBSS (10 mM HEPES, pH 7.4) containing 2% BSA. Rate of drug transport in the basolateral to apical direction was obtained by adding 235 μL of test compound to the receiver plate wells (basolateral compartment) and filling with 75 μL of HBSS (10 mM HEPES, pH 7.4) containing 2% BSA. Time 0 samples were prepared by transferring 25 μL of 5 μM working solution to wells of the 96-deepwell plate containing 25 μL HBSS (10 mM HEPES and 2% BSA, pH 7.4), followed by the addition 200 μL of cold methanol containing appropriate internal standards (100 nM alprazolam, 200 nM labetalol, 200 nM caffeine and 200 nM diclofenac). After incubating at 37° C. for 2 h, 25 μL samples from donor sides (apical compartment) were transferred to a 96-well plate containing 25 μL HBSS (10 mM HEPES and 2% BSA, pH 7.4). 25 μL samples from receiver sides (basolateral compartment) were removed and transferred to a new plate containing 25 μL HBSS (10 mM HEPES, pH 7.4). 200 μL of cold methanol containing internal standards (100 nM alprazolam, 200 nM labetalol, 200 nM caffeine and 200 nM diclofenac) was added to terminate the reaction. Samples were vortexed for 5 minutes and then centrifuged at 3,220 g for 40 minutes. An aliquot of 100 μL of the supernatant is mixed with 100 μL of ultra-pure water for LC-MS/MS analysis. All incubations are performed in duplicate. Solutions were discarded from the transwell plate. 100 μL Lucifer Yellow solution (100 μM in HBSS) was added to each well of transwell insert and 300 μL of HBSS to each well of receiver. After incubating at 37° C. for 30 minutes, 80 μL was aliquotted from each well of apical and basolateral sides to a solid black plate. The plate was then read with Tecan Infinite™ M 200 (Excitation/Emission wavelength […]).
All calculations were carried out using Microsoft Excel. Peak areas were determined from extracted ion chromatograms. The leakage of Lucifer Yellow, in unit of percentage (%), can be calculated using the following equation: […]
LY leakage of <1% is acceptable to indicate the well-qualified Caco-2 monolayers. The apparent permeability coefficient (Papp), in units of centimeter per second, can be calculated for Caco-2 drug transport assays using the following equation: […]
Where VA is the volume (in mL) in the receiver well (0.235 mL for Ap→Bl flux and 0.075 mL for Bl→Ap flux), Area is the surface area of the membrane (0.143 cm^2 for HTS Transwell-96 Well Permeable Supports), and time is the total transport time in seconds. The efflux ratio can be determined using the following equation: […]
Where Papp (B-A) indicates the apparent permeability coefficient in basolateral to apical direction, and Papp (A-B) indicates the apparent permeability coefficient in apical to basolateral direction.
The recovery can be determined using the following equation: […]

OVCAR-3 cells = experiment: In vitro anti-proliferative activity assay in cancer cell line OVCAR-3 (CellTiter-Glo, 4- or 7-day); format: cell-based; conditions: Homo sapiens, read-out: OVCAR-3 cellular antiproliferation assay IC50
KIF18A = KIF18A (Homo sapiens (Human), UniProt Q8NI77); experiment: KIF18A Biochemical Assay (ATPase, ADP-Glo)
KIF18A, sequence (Q8NI77 1-367): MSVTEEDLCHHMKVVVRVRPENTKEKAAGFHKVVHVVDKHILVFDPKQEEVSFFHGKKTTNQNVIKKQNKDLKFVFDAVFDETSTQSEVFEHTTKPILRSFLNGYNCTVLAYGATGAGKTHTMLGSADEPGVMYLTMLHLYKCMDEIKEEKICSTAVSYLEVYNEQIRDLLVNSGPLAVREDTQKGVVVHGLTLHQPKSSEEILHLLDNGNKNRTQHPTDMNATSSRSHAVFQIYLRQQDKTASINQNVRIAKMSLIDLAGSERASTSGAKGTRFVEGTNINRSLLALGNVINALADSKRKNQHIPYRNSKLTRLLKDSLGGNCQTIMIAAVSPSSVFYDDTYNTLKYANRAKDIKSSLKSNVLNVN
KIF18A, sequence (P02550 whole entry partner): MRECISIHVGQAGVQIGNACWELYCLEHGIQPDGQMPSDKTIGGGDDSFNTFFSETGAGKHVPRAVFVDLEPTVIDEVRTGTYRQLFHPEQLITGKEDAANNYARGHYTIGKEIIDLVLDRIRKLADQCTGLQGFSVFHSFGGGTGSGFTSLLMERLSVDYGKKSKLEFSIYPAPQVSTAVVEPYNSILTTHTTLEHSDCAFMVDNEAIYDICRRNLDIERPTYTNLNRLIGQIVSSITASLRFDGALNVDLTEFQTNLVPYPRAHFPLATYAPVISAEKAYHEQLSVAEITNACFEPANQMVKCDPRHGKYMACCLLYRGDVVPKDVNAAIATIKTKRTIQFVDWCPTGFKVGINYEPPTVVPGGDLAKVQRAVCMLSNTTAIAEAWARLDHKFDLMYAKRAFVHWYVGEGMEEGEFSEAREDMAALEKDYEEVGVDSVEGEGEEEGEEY
KIF18A, sequence (P02554 whole entry partner): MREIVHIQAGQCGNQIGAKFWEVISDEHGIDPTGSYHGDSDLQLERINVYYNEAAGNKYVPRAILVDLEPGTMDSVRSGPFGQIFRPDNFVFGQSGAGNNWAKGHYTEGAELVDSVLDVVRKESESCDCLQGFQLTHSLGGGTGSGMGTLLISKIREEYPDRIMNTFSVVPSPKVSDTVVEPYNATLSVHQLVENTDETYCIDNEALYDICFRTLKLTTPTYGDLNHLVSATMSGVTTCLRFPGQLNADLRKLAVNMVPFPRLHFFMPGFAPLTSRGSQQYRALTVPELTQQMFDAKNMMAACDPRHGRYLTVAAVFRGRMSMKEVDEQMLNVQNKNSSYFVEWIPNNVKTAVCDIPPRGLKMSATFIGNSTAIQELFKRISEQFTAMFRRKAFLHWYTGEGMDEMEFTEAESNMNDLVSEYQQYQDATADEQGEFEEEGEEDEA

COC[C@@]12CCN(c3cc(NS(=O)(=O)CCO)ccc3C(=O)Nc3cc(C)nc(N4CCC(F)(F)CC4)n3)C[C@@H]1C2 (single isomer, unassigned) [Example 49b]
efflux ratio at 2 h, 5 μM [1]: < 10
IC50 (OVCAR-3 cells; OVCAR-3, 168 h, 7-day assay): < 100 nM
IC50 (KIF18A): < 100 nM

Cc1ccc(NC(=O)c2ccc(NS(=O)(=O)CCO)cc2N2CC[Si](C)(C)CC2)nc1N1CCOCC1 [Example 2, 2-(4,4-dimethyl-1,4-azasilinan-1-yl)-4-((2-hydroxyethyl)sulfonamido)-N-(5-methyl-6-morpholinopyridin-2-yl)benzamide]
efflux ratio at 2 h, 5 μM [1]: < 10
IC50 (OVCAR-3 cells; OVCAR-3, 96 h, 4-day assay): < 100 nM
IC50 (KIF18A): < 100 nM

CC(C)(C)NS(=O)(=O)c1cccc(NC(=O)c2ccc(NS(=O)(=O)C(C)(C)C)cc2N2CC[Si](C)(C)CC2)c1 [Example 4, N-(3-(N-(tert-butyl)sulfamoyl)phenyl)-2-(4,4-dimethyl-1,4-azasilinan-1-yl)-4-((1,1-dimethylethyl)sulfonamido)benzamide]
efflux ratio at 2 h, 5 μM [1]: < 10
IC50 (OVCAR-3 cells; OVCAR-3, 96 h, 4-day assay): 100 to 500 nM
IC50 (KIF18A): 500 to 1000 nM

Cc1cc(NC(=O)c2ccc(NS(=O)(=O)CCO)cc2N2CC[Si](C)(C)CC2)nc(N2CCOCC2)c1 [Example 5, 2-(4,4-dimethyl-1,4-azasilinan-1-yl)-4-((2-hydroxyethyl)sulfonamido)-N-(4-methyl-6-morpholinopyridin-2-yl)benzamide]
efflux ratio at 2 h, 5 μM [1]: < 10
IC50 (OVCAR-3 cells; OVCAR-3, 96 h, 4-day assay): < 100 nM
IC50 (KIF18A): < 100 nM

C[Si]1(C)CCN(c2cc(NS(=O)(=O)CCO)ccc2C(=O)Nc2cccc(N3CCC(F)(F)CC3)c2)CC1 [Example 6, N-(3-(4,4-difluoropiperidin-1-yl)phenyl)-2-(4,4-dimethyl-1,4-azasilinan-1-yl)-4-((2-hydroxyethyl)sulfonamido)benzamide]
efflux ratio at 2 h, 5 μM [1]: < 10
IC50 (OVCAR-3 cells; OVCAR-3, 96 h, 4-day assay): < 100 nM
IC50 (KIF18A): < 100 nM

Cc1cc(NC(=O)c2ccc(S(=O)(=O)NCCO)cc2N2CC[C@]3(C(F)F)C[C@@H]3C2)nc(N2CCC(F)(F)CC2)n1 [Example 77]
IC50 (OVCAR-3 cells; OVCAR-3, 168 h, 7-day assay): 100 to 500 nM
IC50 (KIF18A): 100 to 500 nM

Cc1cc(NC(=O)c2ccc(NS(=O)(=O)CCO)cc2N2CC[C@]3(C(C)(F)F)C[C@@H]3C2)nc(N2CCC(F)(F)CC2)n1 [Example 79]
IC50 (OVCAR-3 cells; OVCAR-3, 168 h, 7-day assay): > 1000 nM
IC50 (KIF18A): 100 to 500 nM

Cc1cc(NC(=O)c2ccc(NS(=O)(=O)CCO)cc2N2CC[C@@]3(C(C)(F)F)C[C@H]3C2)nc(N2CCC(F)(F)CC2)n1 [Example 80]
IC50 (OVCAR-3 cells; OVCAR-3, 168 h, 7-day assay): 100 to 500 nM
IC50 (KIF18A): 100 to 500 nM

CO[C@]12CCN(c3cc(NS(=O)(=O)CCO)ccc3C(=O)Nc3cc(C)nc(N4CCC(F)(F)CC4)n3)C[C@H]1C2 [Example 81]
IC50 (OVCAR-3 cells; OVCAR-3, 168 h, 7-day assay): 500 to 1000 nM
IC50 (KIF18A): < 100 nM

CO[C@@]12CCN(c3cc(NS(=O)(=O)CCO)ccc3C(=O)Nc3cc(C)nc(N4CCC(F)(F)CC4)n3)C[C@@H]1C2 [Example 82]
IC50 (OVCAR-3 cells; OVCAR-3, 168 h, 7-day assay): 500 to 1000 nM
IC50 (KIF18A): < 100 nM

O=C(Nc1cccc(N2CCC(F)(F)CC2)n1)c1c(F)cc(NS(=O)(=O)CCO)cc1N1CC[C@]2(C(F)F)C[C@@H]2C1 [Example 83]
IC50 (OVCAR-3 cells; OVCAR-3, 168 h, 7-day assay): 500 to 1000 nM
IC50 (KIF18A): < 100 nM

C[Si]1(C)CCN(c2cc(NS(=O)(=O)CCO)ccc2C(=O)Nc2cccc(C3(C(F)(F)F)N=N3)c2)CC1 [Example 87]
IC50 (OVCAR-3 cells; OVCAR-3, 168 h, 7-day assay): 100 to 500 nM
IC50 (KIF18A): < 100 nM

C[Si]1(C)CCN(c2cc(NS(=O)(=O)CCO)c(F)cc2NC(=O)c2ccnc(N3CCC(F)(F)CC3)n2)CC1 [Example 90]
efflux ratio at 2 h, 5 μM [1]: < 10
IC50 (OVCAR-3 cells; OVCAR-3, 168 h, 7-day assay): 100 to 500 nM

C[Si]1(C)CCN(c2cc(NS(=O)(=O)CCO)ccc2C(=O)Nc2ccnc(N3CCCC(C#N)C3)n2)CC1 (stereo not shown) [Example 94]
efflux ratio at 2 h, 5 μM [1]: < 10
IC50 (OVCAR-3 cells; OVCAR-3, 96 h, 4-day assay): 100 to 500 nM

C[Si]1(C)CCN(c2cc(NS(=O)(=O)CCO)ccc2NC(=O)c2cccc(N3CCC(F)(F)CC3)n2)CC1 [Example 96]
efflux ratio at 2 h, 5 μM [1]: < 10
IC50 (OVCAR-3 cells; OVCAR-3, 96 h, 4-day assay): < 100 nM

CC(C)(CO)Nc1ccc(C(=O)Nc2cccc(S(=O)(=O)C3CCCC3)c2)c(N2CC[Si](C)(C)CC2)n1 [Example 97]
IC50 (OVCAR-3 cells; OVCAR-3, 168 h, 7-day assay): > 1000 nM
IC50 (KIF18A): > 1000 nM
